Patent US20230263822A1, “MODULATION OF FACTOR 11 EXPRESSION” (Ionis Pharmaceuticals, Inc., priority 2008, published 2023)
Where two headings read alike, the source gives them in different places.

Experiments:
[1] = mouse, in vivo, sc, 50 mg/kg
[2] = rat, in vivo, sc, 50 mg/kg
[3] = mouse, in vivo, sc, 50 mg/kg; remark: listed apart in the source
[4] = rat, in vivo, sc, 50 mg/kg; remark: listed apart in the source
[5] = mouse, in vivo, sc, 50 mg/kg; remark: listed apart in the source
[6] = rat, in vivo, sc, 50 mg/kg; remark: listed apart in the source

Row | Substance | BUN [1] | ALT [3] | AST [3] | Bilirubin [3] | Cholesterol [3] | HCT [5] | Lymphocyte [5] | Neutrophil [5] | Platelets [5] | RBC [5] | WBC [5] | hemoglobin [5] | monocytes [5] | other results
1 | ISIS 416852: MOE gapmer, nucleobases 1275 to 1318 of SEQ ID NO: 1 (Table 8) (antisense TGGTGCACAGTTTCTGGCAG; MOE gapmer, wing and gap sizes not given here) | 21 mg/dL | 49 IU/L | 91 IU/L | 0.16 mg/dL | 125 mg/dL | 49% | 3646 cells/μL | 1241 cells/μL | 903 10^3/μL | 9 10^6/μL | 5 10^3/μL | 14 g/dL | 189 cells/μL | HCT [2]: 42%; Lymphocyte [2]: 11956; Neutrophil [2]: 836; Platelets [2]: 632; RBC [2]: 7.2 10^6/μL; WBC [2]: 13 10^3/μL; hemoglobin [2]: 13.4 g/dL; ALT [4]: 49 IU/L; AST [4]: 87 IU/L; Albumin [4]: 4; Bilirubin [4]: 0.15 mg/dL; BUN [6]: 25 mg/dL; Creatinine [6]: 60 mg/dL; Total urine protein [6]: 189 mg/dL; Urine protein/creatinine ratio [6]: 3.0
2 | ISIS 416853: MOE gapmer, nucleobases 1275 to 1318 of SEQ ID NO: 1 (Table 8) (antisense TTGGTGCACAGTTTCTGGCA; MOE gapmer, wing and gap sizes not given here) | 22 mg/dL | 1023 IU/L | 1087 IU/L | 0.25 mg/dL | 164 mg/dL | 56% | 5184 cells/μL | 2040 cells/μL | 801 10^3/μL | 11 10^6/μL | 8 10^3/μL | 17 g/dL | 225 cells/μL | 
3 | ISIS 416855: MOE gapmer, nucleobases 1275 to 1318 of SEQ ID NO: 1 (Table 8) (antisense CATTGGTGCACAGTTTCTGG; MOE gapmer, wing and gap sizes not given here) | 23 mg/dL | 786 IU/L | 580 IU/L | 0.25 mg/dL | 162 mg/dL | 50% | 4236 cells/μL | 1443 cells/μL | 784 10^3/μL | 9 10^6/μL | 6 10^3/μL | 14 g/dL | 263 cells/μL | 
4 | ISIS 416849: MOE gapmer, nucleobases 1275 to 1318 of SEQ ID NO: 1 (Table 8) (antisense GCACAGTTTCTGGCAGGCCT; MOE gapmer, wing and gap sizes not given here) | 23 mg/dL | 1056 IU/L | 582 IU/L | 0.22 mg/dL | 109 mg/dL | 48% | 6967 cells/μL | 1522 cells/μL | 744 10^3/μL | 9 10^6/μL | 9 10^3/μL | 14 g/dL | 253 cells/μL | 
5 | ISIS 416854: MOE gapmer, nucleobases 1275 to 1318 of SEQ ID NO: 1 (Table 8) (antisense ATTGGTGCACAGTTTCTGGC; MOE gapmer, wing and gap sizes not given here) | 27 mg/dL | 1613 IU/L | 1140 IU/L | 0.21 mg/dL | 199 mg/dL | 43% | 9375 cells/μL | 2082 cells/μL | 1060 10^3/μL | 9 10^6/μL | 12 10^3/μL | 13 g/dL | 455 cells/μL | 
